From PMC6556873, “Rapid Covalent-Probe Discovery by Electrophile-Fragment Screening” (Journal of the American Chemical Society, 2019) come the findings set out here.

Data set [1] can be described thus: in vitro. The note with it: human, hb2 cells, read-out: HB-2 Cells Viability (%). Further details: species or system CCD841, HEK293.
A further data set concerns the target T1, PCAF (Homo sapiens, UniProt Q92831).
T1 construct: gene KAT2B
Further details: Intact protein LC/MS covalent labelling, fragments in pools of five, 200 uM each, 4 °C. The conditions noted are these: 24 h, 4 °C, pool of five; 200 µM; covalent.

The target in another data set is T2, NUDT7 (Homo sapiens, UniProt P0C024).
T2 construct: residues 14-235, E. coli, pNIC28-Bsa4, N-terminal His6 tag removed by TEV, construct 26672 Da
Also on record: Intact protein LC/MS covalent labelling, fragments in pools of five, 200 uM each, 4 °C. The note with it: 24 h, 4 °C, pool of five; 200 µM; covalent.

For a further data set, the target named is T3, BSA (Bos taurus, UniProt P02769).
T3 construct: gene ALB
Also on record: Intact protein LC/MS covalent labelling, fragments in pools of five, 200 uM each, 4 °C. The note with it: 24 h, 4 °C, pool of five; 200 µM; covalent.

For a further data set, the target named is T4, OTUB2 (OTUB2A) (Homo sapiens, UniProt Q96DC9).
T4 construct: full length residues 1-234, E. coli BL21(DE3)-R3, His tag removed by TEV, construct 27312 Da
T4 sequence (Q96DC9 1-234): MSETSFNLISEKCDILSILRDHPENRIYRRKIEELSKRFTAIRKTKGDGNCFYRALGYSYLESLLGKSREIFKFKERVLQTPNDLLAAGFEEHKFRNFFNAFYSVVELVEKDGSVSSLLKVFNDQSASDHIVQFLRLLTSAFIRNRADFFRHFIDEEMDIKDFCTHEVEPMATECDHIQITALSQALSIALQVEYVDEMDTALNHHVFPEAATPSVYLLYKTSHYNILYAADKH
Also on record: Intact protein LC/MS covalent labelling, fragments in pools of five, 200 uM each, 4 °C. The conditions noted are these: 24 h, 4 °C, pool of five; 200 µM; covalent.

Data set [2] is described as follows: in vitro. Further details: species or system HB2, CCD841. The note with it: human, hek293 cells.
Data set [3] can be described thus: in vitro. Also on record: species or system HB2, HEK293. The conditions noted are these: human, ccd841 cells.

Where two headings read alike, the source gives them in different places.

T1 sequence (Q92831 whole entry): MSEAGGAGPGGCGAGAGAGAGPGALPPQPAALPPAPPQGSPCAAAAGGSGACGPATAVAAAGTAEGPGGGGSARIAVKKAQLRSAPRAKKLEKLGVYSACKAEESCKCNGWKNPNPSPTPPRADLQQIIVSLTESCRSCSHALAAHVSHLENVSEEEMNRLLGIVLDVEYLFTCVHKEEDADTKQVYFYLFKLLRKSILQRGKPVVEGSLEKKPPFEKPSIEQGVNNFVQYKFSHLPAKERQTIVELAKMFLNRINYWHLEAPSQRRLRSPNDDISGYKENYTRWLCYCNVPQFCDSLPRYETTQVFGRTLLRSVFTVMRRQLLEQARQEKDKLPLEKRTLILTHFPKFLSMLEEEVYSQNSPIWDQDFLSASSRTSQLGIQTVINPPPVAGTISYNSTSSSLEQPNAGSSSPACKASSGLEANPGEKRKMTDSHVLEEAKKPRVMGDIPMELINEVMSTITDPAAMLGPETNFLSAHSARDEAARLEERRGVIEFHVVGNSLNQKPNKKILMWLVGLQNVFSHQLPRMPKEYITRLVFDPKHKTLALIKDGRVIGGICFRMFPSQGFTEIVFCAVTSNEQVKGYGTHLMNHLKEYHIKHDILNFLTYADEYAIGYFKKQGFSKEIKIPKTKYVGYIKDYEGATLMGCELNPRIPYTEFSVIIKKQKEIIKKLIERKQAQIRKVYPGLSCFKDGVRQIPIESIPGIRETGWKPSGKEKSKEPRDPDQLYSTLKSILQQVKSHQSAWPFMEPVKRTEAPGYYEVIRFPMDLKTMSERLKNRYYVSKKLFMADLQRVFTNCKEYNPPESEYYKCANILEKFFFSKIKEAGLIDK
T2 sequence (P0C024 14-235): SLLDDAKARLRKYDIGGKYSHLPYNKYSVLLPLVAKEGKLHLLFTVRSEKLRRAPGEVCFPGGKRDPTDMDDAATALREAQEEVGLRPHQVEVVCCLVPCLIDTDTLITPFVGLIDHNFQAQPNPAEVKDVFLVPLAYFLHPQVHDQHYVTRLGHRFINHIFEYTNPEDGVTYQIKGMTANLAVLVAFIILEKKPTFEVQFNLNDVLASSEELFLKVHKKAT
T3 sequence (P02769 whole entry): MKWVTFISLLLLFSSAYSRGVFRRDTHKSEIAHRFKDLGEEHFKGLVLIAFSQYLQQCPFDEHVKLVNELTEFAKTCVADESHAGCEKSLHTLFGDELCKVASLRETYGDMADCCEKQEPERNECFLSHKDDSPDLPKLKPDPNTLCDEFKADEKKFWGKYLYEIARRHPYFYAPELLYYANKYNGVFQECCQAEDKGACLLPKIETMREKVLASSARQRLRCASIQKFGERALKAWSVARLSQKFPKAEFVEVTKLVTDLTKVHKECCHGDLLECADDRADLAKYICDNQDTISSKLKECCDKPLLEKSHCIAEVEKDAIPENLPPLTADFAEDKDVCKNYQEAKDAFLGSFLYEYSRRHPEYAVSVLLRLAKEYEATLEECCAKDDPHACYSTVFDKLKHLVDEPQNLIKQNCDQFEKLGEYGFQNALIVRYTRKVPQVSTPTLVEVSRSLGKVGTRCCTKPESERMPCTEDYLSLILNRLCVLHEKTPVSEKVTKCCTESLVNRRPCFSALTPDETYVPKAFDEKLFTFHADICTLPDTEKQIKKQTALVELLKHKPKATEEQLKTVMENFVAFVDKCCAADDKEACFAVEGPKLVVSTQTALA

For `Cc1cc(C)c2nc(NC(=O)CCl)sc2c1` [PCM-0102246], the viability at 48 h, 10 µM in “in vitro [1]” was 51.6%; in “in vitro [2]”, 67.3%; in “in vitro [3]” it was 79.8%. On PCAF, this compound had a PCAF of 0. This compound also returned an NUDT7 on NUDT7 of 0.83. This compound yielded a BSA at BSA of 0. Further, at OTUB2 (OTUB2A), the OTUB2 was 0.14.
As to `C=CC(=O)N1CCCC(c2nc3c(s2)CCCC3)C1` (centres unmarked) [PCM-0103069], the viability at 48 h, 10 µM was found to be 98.5% in “in vitro [1]”, 79.4% in the data set “in vitro [2]” and 104% in “in vitro [3]”. For the same compound, the PCAF at PCAF was 0. The NUDT7 on NUDT7 came out at 0. This compound gave a BSA on BSA of 0. Moreover, the OTUB2 at OTUB2 (OTUB2A) came to 0.
Take `O=C(CCl)NNC(=O)c1ccccc1` [PCM-0102240]: the viability at 48 h, 10 µM was determined as 98.1% in “in vitro [1]”, 92.4% in the data set “in vitro [2]” and 85.6% in “in vitro [3]”. Also, on PCAF, the PCAF was found to be 0. This compound also had an NUDT7 at NUDT7 of 0. Moreover, the BSA at BSA was 0. In addition, at OTUB2 (OTUB2A), the OTUB2 is recorded as 0.2.
As for `C=CC(=O)Nc1ccc(F)c(F)c1` [PCM-0102385], the viability at 48 h, 10 µM in the data set “in vitro [1]” was 104%; in the data set “in vitro [2]”, 66.1%; in the data set “in vitro [3]”, 112%. At PCAF, this compound came in with a PCAF of 0. Moreover, the NUDT7 at NUDT7 is listed as 0. The compound also came in with a BSA on BSA of 0. At OTUB2 (OTUB2A), this compound had an OTUB2 of 0.
Take `C=CC(=O)N1CCN(C(=O)C2COc3ccccc3O2)CC1` (centres unmarked) [PCM-0102999]: the results for the viability at 48 h, 10 µM in “in vitro [1]”, in the data set “in vitro [2]” and in “in vitro [3]” were 100%, 88.3% and 112%, respectively. The compound also returned a PCAF on PCAF of 0. For the same compound, the NUDT7 on NUDT7 stood at 0. Also, the BSA at BSA was 0. This compound also showed an OTUB2 at OTUB2 (OTUB2A) of 0.
Take `Cc1ccc(NC(=O)CCl)cc1S(N)(=O)=O` [PCM-0102177]: the viability at 48 h, 10 µM in the data set “in vitro [1]” turned out to be 8.9%; in the data set “in vitro [2]”, 1.4%; in “in vitro [3]”, 28.2%. Moreover, the PCAF at PCAF came to 0. For the same compound, the NUDT7 on NUDT7 is 0.1. This compound also returned a BSA at BSA of 0. For the same compound, on OTUB2 (OTUB2A), the OTUB2 is 0.27.
As for `COc1ccc2c(c1)CCCN2C(=O)CCl` [PCM-0102325], the viability at 48 h, 10 µM in the data set “in vitro [1]” is 7.5%; in the data set “in vitro [2]”, 1.8%; in “in vitro [3]” it was 40.2%. The compound further showed a PCAF at PCAF of 0. Besides, at NUDT7, the NUDT7 is 0.12. The same compound displayed a BSA on BSA of 0. On OTUB2 (OTUB2A), the OTUB2 was 0.
Regarding `O=C(CCl)Nc1cc(Cl)ccc1Cl` [PCM-0102288], the viability at 48 h, 10 µM in the data set “in vitro [1]” was 40.7%; in the data set “in vitro [2]”, 38.4%; in “in vitro [3]”, 70.8%. In addition, the PCAF on PCAF was 0. This compound also showed an NUDT7 at NUDT7 of 0.06. At BSA, this compound registered a BSA of 0. This compound also showed an OTUB2 on OTUB2 (OTUB2A) of 0.
`O=C(CCl)Nc1cc2c(cc1Br)OCCO2` [PCM-0102299]: the viability at 48 h, 10 µM in “in vitro [1]” worked out at 15.8%; in “in vitro [2]”, 12.6%; in the data set “in vitro [3]” it was 62.8%. In addition, the PCAF at PCAF is given as 0. The compound further registered an NUDT7 on NUDT7 of 0.27. The same compound came in with a BSA at BSA of 0. Also, the OTUB2 at OTUB2 (OTUB2A) was determined as 0.67.
Take `O=C(CCl)N1CCN(Cc2ccccc2)C1=O` [PCM-0102919]: the viability at 48 h, 10 µM was 102% in the data set “in vitro [1]”, 90.9% in “in vitro [2]” and 96.2% in “in vitro [3]”. The PCAF on PCAF was 0. This compound also came in with an NUDT7 on NUDT7 of 0. At BSA, this compound yielded a BSA of 0. This compound returned an OTUB2 on OTUB2 (OTUB2A) of 0.1.
As for `C=CC(=O)N1CC(O)CC1c1ccccc1C(F)(F)F` (centres unmarked) [PCM-0102677], the viability at 48 h, 10 µM came to 98.4% in the data set “in vitro [1]”, 109% in the data set “in vitro [2]” and 108% in the data set “in vitro [3]”. On PCAF, this compound had a PCAF of 0. At NUDT7, the NUDT7 worked out at 0. The compound also had a BSA at BSA of 0. The OTUB2 at OTUB2 (OTUB2A) amounted to 0.
As for `NC(=O)C1CCN(C(=O)CCl)CC1` [PCM-0102584], the viability at 48 h, 10 µM worked out at 105% in “in vitro [1]”, 89.8% in “in vitro [2]” and 97.9% in the data set “in vitro [3]”. This compound showed a PCAF at PCAF of 0. The NUDT7 at NUDT7 was found to be 0. Besides, the BSA on BSA is on record as 0. At OTUB2 (OTUB2A), this compound gave an OTUB2 of 0.
Turning to `C=CC(=O)Nc1ccc(Br)cc1` [PCM-0102191], the results for the viability at 48 h, 10 µM in “in vitro [1]”, in “in vitro [2]” and in the data set “in vitro [3]” were 91.3%, 65.6% and 88.9%, respectively. For the same compound, the PCAF at PCAF amounted to 0. Also, on NUDT7, the NUDT7 came out at 0.09. Further, the BSA on BSA came to 0. Also, the OTUB2 on OTUB2 (OTUB2A) is recorded as 0.
For `CSc1ccc(NC(=O)CCl)cc1` [PCM-0102772], the viability at 48 h, 10 µM turned out to be 15.2% in the data set “in vitro [1]”, 3% in the data set “in vitro [2]” and 51.2% in “in vitro [3]”. The PCAF on PCAF is reported as 0. Moreover, the NUDT7 on NUDT7 was 0.13. This compound also gave a BSA at BSA of 0. At OTUB2 (OTUB2A), this compound had an OTUB2 of 0.28.
For `CCN(C(=O)CCl)C1CCS(=O)(=O)C1` (centres unmarked) [PCM-0102105], the viability at 48 h, 10 µM in the data set “in vitro [1]” is 95%; in “in vitro [2]”, 54.9%; in the data set “in vitro [3]”, 68.1%. In addition, the PCAF on PCAF is recorded as 0. Also, on NUDT7, the NUDT7 came out at 0. This compound gave a BSA at BSA of 0. The compound further displayed an OTUB2 at OTUB2 (OTUB2A) of 0.
With `COC(=O)c1sccc1NC(=O)CCl` [PCM-0102367], the viability at 48 h, 10 µM turned out to be 75% in the data set “in vitro [1]”, 54% in the data set “in vitro [2]” and 85.5% in the data set “in vitro [3]”. The PCAF on PCAF is 0. The same compound returned an NUDT7 on NUDT7 of 0.12. On BSA, the BSA stood at 0. For the same compound, the OTUB2 at OTUB2 (OTUB2A) worked out at 0.
For the compound `Cc1nn(C)c(C)c1NC(=O)CCl` [PCM-0102949], the viability at 48 h, 10 µM in the data set “in vitro [1]” was 93.9%; in the data set “in vitro [2]” it was 99.6%; in “in vitro [3]” it was 83.8%. Also, at PCAF, the PCAF turned out to be 0. In addition, the NUDT7 on NUDT7 worked out at 0. On BSA, this compound registered a BSA of 0. For the same compound, the OTUB2 at OTUB2 (OTUB2A) came to 0.
As for `CC1CCN(C(=O)CCl)C2CCCCC12` (centres unmarked) [PCM-0102831], the viability at 48 h, 10 µM was determined as 14.7% in the data set “in vitro [1]”, 5.6% in “in vitro [2]” and 6.8% in “in vitro [3]”. The PCAF at PCAF is recorded as 0. The NUDT7 at NUDT7 was 0.37. For the same compound, the BSA on BSA was determined as 0. Besides, at OTUB2 (OTUB2A), the OTUB2 came to 0.
In the case of `CC(C)CNC(=O)NC(=O)CCl` [PCM-0102502], the viability at 48 h, 10 µM amounted to 78% in the data set “in vitro [1]”, 52.7% in “in vitro [2]” and 80.7% in the data set “in vitro [3]”. The compound further showed a PCAF at PCAF of 0. In addition, at NUDT7, the NUDT7 is 0. At BSA, the BSA is listed as 0. The compound also registered an OTUB2 at OTUB2 (OTUB2A) of 0.
As for `O=C(CCl)NNC(=O)c1ccccc1Cl` [PCM-0102954], the viability at 48 h, 10 µM was 91.9% in “in vitro [1]”, 91.3% in the data set “in vitro [2]” and 72.3% in the data set “in vitro [3]”. For the same compound, on PCAF, the PCAF is 0. This compound came in with an NUDT7 at NUDT7 of 0. The BSA at BSA came to 0. This compound displayed an OTUB2 at OTUB2 (OTUB2A) of 0.8.

Broadly, the viability is a read-out of living cells in per cent, often relative to untreated cells.
